# Assay results from PubChem BioAssay AID1996.
# Conditions: buffer; pH 7.4; 200.0 µM
row,solubility kinetic [µg/mL],Structure (SMILES)
1,1,CC(=O)N1CCN(c2ccc(NC(=O)c3ccc(Cl)cc3)cc2)CC1
2,> 40.8,C=CCOC(=O)c1cn(CC)c2nc(C)ccc2c1=O
3,> 42.9,C=CCNC(=O)/C(=C\c1ccco1)NC(=O)c1ccco1
4,6,COc1ccccc1NC(=O)COC(=O)c1oc2ccccc2c1C
5,41.3,O=S(=O)(Nc1ccc(N2CCCCC2)cc1)c1ccc(F)cc1F
6,< 0.7,CCCOc1ccc(N/C=C/C(=O)c2ccc(OC)c(OC)c2)cc1
7,< 0.1,N#Cc1sc2nccc(Nc3ccccc3)c2c1N
8,> 42.3,CC(CC(=O)O)CC(=O)Nc1cc([N+](=O)[O-])ccc1O (stereo not given)
9,< 0.2,CC(=O)NC1(C(F)(F)F)C(=O)Nc2c1c(=O)[nH]c(=O)n2CC(C)C (stereo not given)
10,0.9,Cc1ccccc1Cn1cnc2c(oc3ccccc32)c1=O
11,2.4,CCc1cccc(NC(=O)CC2Oc3ccccc3NC2=O)c1 (stereo not given)
12,< 0.2,Cc1ccc(Nc2ccc([N+](=O)[O-])cn2)cc1Cl
13,31.7,CC(C)C(C)N(Cc1cccc(C(=O)O)c1)C(=O)c1ccc2ccccc2n1 (stereo not given)
14,> 37.8,O=C1NC(=O)C(c2ccccc2)(c2ccccc2)N1
15,> 39.2,O=C(O)CCN=Cc1c(O)c2ccccc2oc1=O
16,19.4,COC(=O)c1[nH]c2c(c1C(=O)OC)CCc1ccccc1-2
17,4.5,O=C(COC(=O)/C=C/c1cccc(C(F)(F)F)c1)NC(=O)NCc1ccco1
18,> 51.1,CCOc1ccc(C(=O)NC2CC(C)(C)NC(C)(C)C2)cc1.Cl
19,> 25.5,O=c1ccnc2n1COCS2
20,> 46.9,COc1cc(S(=O)(=O)NCc2ccccn2)ccc1Cl

row,solubility kinetic [µg/mL],Structure (SMILES)
1,4.8,CCOc1ccc(NC(=O)CSc2nc(=O)n(Cc3cccnc3)c3c2CCC3)cc1
2,22.4,CCOC(=O)c1cc(S(=O)(=O)N2CCCC2)cn1C
3,36.8,CN1CCN(C2CCN(c3cccc(Cl)c3)CC2)CC1CCO (stereo not given)
4,37.2,O=C(COc1ccc(Cl)cc1)NCCc1ccccn1
5,> 49.3,CCSc1nc2cc(S(=O)(=O)N3CCOCC3)ccc2o1
6,39.4,CN(C)C(=S)SCC(=O)NC(=O)NC(C)(C)C
7,29,C/C=C/C(=O)OCC(=O)Nc1cccc(Br)c1
8,> 42.1,CCc1ccccc1NC(=O)N1CCc2ccccc2C1
9,4.6,O=C(CN1C(=O)c2ccccc2C1=O)Nc1ccc(Cl)cn1
10,> 50.5,CCC(=O)N(Cc1cc2ccccc2[nH]c1=O)c1ccc(OC)cc1
11,40.5,COc1ccc(NCCC(O)c2ccc(Cl)cc2)cc1 (stereo not given)
12,29.2,COc1ccc(CCNc2nc(-c3ccc(O)cc3)cs2)cc1OC
13,> 39.4,Cc1cccc(C)c1NC(=O)N1CC(C)OC(C)C1 (stereo not given)
14,> 37.7,CSc1ncccc1C(=O)Nc1nccs1
15,> 49.4,COc1ccc(CC(=O)NCCc2ccc(OC)c(OC)c2)cc1
16,> 37.1,Cc1ccc(S(=O)(=O)N2CCOCC2)s1
17,3.1,Brc1ccc2[nH]c3c(c2c1)CCC3
18,> 68.8,COc1cc(-c2nnc(SCc3cc(=O)oc4cc(O)c(O)cc34)o2)cc(OC)c1OC
19,3.8,O=C(CNC(=O)c1ccccc1F)c1ccc(Br)cc1
20,47,COCC(=O)Nc1ccc(S(=O)(=O)Nc2nccs2)cc1

row,solubility kinetic [µg/mL],Structure (SMILES)
1,37.3,CCN(CC)S(=O)(=O)c1ccc(-c2csc(C)n2)cc1
2,> 46.5,Cn1c(NNC(=O)c2c(F)cccc2F)cc(=O)n(C)c1=O
3,43.2,CCNC(C(=O)c1c[nH]c2c(CC)cccc12)c1ccccc1 (stereo not given)
4,< 0.7,COc1ccc(NC(=O)c2cc(F)c(F)cc2Cl)cc1Cl
5,16.6,O=C(Nc1ccccc1)O/N=C1/CCCc2occc21
6,> 49.6,CCC(C)N1CNc2c(c(=O)[nH]c(=S)n2-c2cccc(C)c2)C1 (stereo not given)
7,19.6,CCC(C)N1C(=O)CN(C2CCCCCC2)C(=O)C1c1ccccc1F (stereo not given)
8,< 0.2,Cc1nc(-c2cc(-c3nc(-c4ccc(C(C)(C)C)cc4)no3)no2)cs1
9,54.6,COC(CSc1ncnc2c1oc1nc3c(cc12)COC(C)(C)C3)OC
10,3.8,CC1CCN(C2=NC(=O)/C(=C/c3ccc(O)cc3)S2)CC1
11,1.9,O=C(Cn1cc([N+](=O)[O-])ccc1=O)NCc1ccc(Cl)cc1Cl
12,28.7,COc1ccccc1CN(C)C(=O)c1cc2ccccc2o1
13,10.1,COc1cc(-c2ccc(NC(C)=O)c(OC)c2)ccc1NC(C)=O
14,4,Cn1c2ccc(F)cc2c2ncn(CC3CCCO3)c(=O)c21 (stereo not given)
15,17.1,O=C(Nc1ccccc1NC(=O)c1ccco1)c1ccccc1
16,40.8,O=C(c1cc(-c2cccc(O)c2)on1)N1CCCCCC1
17,6,CC(C)CN(C(=O)CN(C)CC(=O)Nc1ccc(Cl)c(C(F)(F)F)c1)c1c(N)n(CC(C)C)c(=O)[nH]c1=O
18,> 50.9,CC(C)CC(=O)Nc1ccc(S(=O)(=O)Nc2nccs2)cc1
19,0.6,O=C1NC(=S)N/C1=C/c1ccc2ccccc2c1

row,Structure (SMILES),solubility kinetic [µg/mL]
1,CCCN1CCCC(C(=O)c2cc(C)c(OC)c(C)c2)C1 (stereo not given),39
